Measured values published in US7429658B2, “Synthesis of protected pyrrolobenzodiazepines” (Spirogen Limited, priority 2003, dated 2008).

Assays:
[1] = molecular target: T1, Carboxypeptidase G2 (CPG2) (Pseudomonas sp., UniProt P06621); assay: Carboxypeptidase G2 (CPG2) cleavage of prodrug to parent PBD imine, monitored by reversed phase HPLC; format: biochemical; settings: 100 μM prodrug, CPG2 (1 unit), 100 mM Tris-HCl pH 7.3, 260 μM ZnCl2, 37° C.
T1 sequence (P06621 23-415): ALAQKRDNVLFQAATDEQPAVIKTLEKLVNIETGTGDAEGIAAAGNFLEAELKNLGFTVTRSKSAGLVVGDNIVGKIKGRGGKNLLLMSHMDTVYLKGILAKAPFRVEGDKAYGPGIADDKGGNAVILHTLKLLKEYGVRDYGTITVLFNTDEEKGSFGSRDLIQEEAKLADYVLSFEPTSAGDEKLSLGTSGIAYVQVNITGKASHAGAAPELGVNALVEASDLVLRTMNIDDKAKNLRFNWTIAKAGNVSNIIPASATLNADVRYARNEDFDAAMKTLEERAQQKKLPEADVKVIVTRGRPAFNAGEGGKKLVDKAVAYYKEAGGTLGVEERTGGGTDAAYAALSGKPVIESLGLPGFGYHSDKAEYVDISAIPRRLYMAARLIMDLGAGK
Method: (§1) An aliquot of a 10 mM stock solution of the carbamate monomer prodrug was diluted to 100 μM in Carboxypeptidase G2 (CPG2) assay buffer (100 mM Tris-HCl, pH 7.3; 260 μM ZnCl2). CPG2 (1 unit) was added and the reaction was incubated at 37° C. The reaction was monitored by reversed phase HPLC (C18 column, 5 μM particle size, 250 mm×4.6 mm; mobile phase 70% H2O/30% CH3CN/0.1% TFA; detection at 245 nM) with 20 μL aliquots being injected at 0, 10, 20, 30, 40, 50 and 60 min. The conversion of the prodrug to the parent imine 30 was complete in 60 minutes.
as §1, with “carbamate dimer” for “carbamate monomer”, “0, 15,” for “0, 10, 20,”, “30, 45, 60” for “30, 40, 50”, “and 75” for “and 60”, “imine 61” for “imine 30”, “in 75 min.” for “in 60 minutes.”

[2] = Photolytic deprotection of N-10 protected PBD (irradiation at 365 nM), monitored by reversed phase HPLC; format: physicochemical; settings: 0.25 g in MeOH (10 mL) irradiated at 365 nM; HPLC at 1 h intervals against standard of parent PBD 30
Method: A solution of the N-10 protected PBD (0.25 g) in MeOH (10 mL was irradiated at 365 nM. The reaction was monitored by reversed phase HPLC (C18 column, 5 μM particle size, 250 mm×4.6 mm; mobile phase 70% H2O/30% CH3CN/0.1% TFA; detection at 245 nM) against a standard sample of the parent PBD 30. Aliquots of the reaction mixture (20 μL) were injected at 1 h intervals. The conversion to parent PBD was complete in 12 h.

COc1cc2c(cc1OCCCCCOc1cc3c(cc1OC)C(=O)N1CCC[C@H]1[C@H](O)N3C(=O)OCc1ccc(OC(=O)N[C@@H](CCC(=O)O)C(=O)O)cc1)N(C(=O)OCc1ccc(OC(=O)N[C@@H](CCC(=O)O)C(=O)O)cc1)[C@@H](O)[C@@H]1CCCN1C2=O [Compound 68, 1,1′-[[Pentane-1,5-diyl]dioxy]bis[(11S,11aS)-10-[N-(4-(L-glutamylcarbonyloxy)benzyloxycarbonyl)]-11-hydroxy-7-methoxy-1,2,3,10,11,11a-hexahydro-5H-pyrrolo[2,1-c][1,4]benzodiazepine-5-one]]
conversion of the prodrug to the parent imine 61 complete in ([1]; HPLC aliquots every 15 min to 75 min): ≤ 75 min

COc1cc2c(cc1OC)N(C(=O)OCc1ccc(OC(=O)N[C@@H](CCC(=O)O)C(=O)O)cc1)[C@@H](O)[C@@H]1CCCN1C2=O [Compound 46, 2-[4-((11S,11aS)-7,8-Dimethoxy-11-hydroxy-5-oxo-1,2,3,10,11,11a-hexahydro-5H-pyrrolo[2,1-c][1,4]benzodiazepine-10-carbonyloxymethyl)-phenoxycarbonylamino]-pentanedioic acid]
conversion of the prodrug to the parent imine 30 complete in ([1]; HPLC aliquots every 10 min to 60 min): ≤ 60 min

COc1cc(COC(=O)N2c3cc(OC)c(OC)cc3C(=O)N3CCC[C@H]3[C@@H]2O)c([N+](=O)[O-])cc1OC [Compound 28, (11S,11aS)-7,8-Dimethoxy-11-hydroxy-5-oxo-1,2,3,10,11,11a-hexahydro-5H-pyrrolo[2,1-c][1,4]benzodiazepine-10-carboxylic acid 4,5-dimethoxy-2-nitro-benzyl ester]
conversion to parent PBD complete in [2]: ≤ 12 h
